The values below come from PubChem BioAssay (NCI).

Molecules are shown by their SMILES. Several values for one entry are separate records, joined by “and”; a condition that tells them apart may be missing. Equal values may be shown once.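 How tested: cells in 96-well plates exposed to compound for 48 hours at five concentrations. GI50 marks 50% less growth. TGI: concentration producing complete growth inhibition.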

Some test systems named below: HL-60(TB) leukemia; SR leukemia; T-47D breast; EKVX NSCLC; CAKI-1 renal; U251 CNS; KM12 colon; ACHN renal; SNB-75 CNS; 786-0 renal.
Assay in all cases: NCI tumour cell line growth inhibition, 48 h

With `c1ccc2[nH]c(-c3ccc(-c4nccc5c4[nH]c4ccccc45)cc3)nc2c1`, the GI50 in the test on HL-60(TB) leukemia is 2.03 µM; in the test on SR leukemia, 2.21 µM; in the test with T-47D breast, 2.02 µM; with EKVX NSCLC, 3.45 µM; with CAKI-1 renal, 2.41 µM; in the test on U251 CNS, 2.74 µM. In addition, the GI50 in the test on KM12 colon was 3.59 µM; in the test on ACHN renal it was 2.05 µM; in the test on SNB-75 CNS, 1.57 µM; with 786-0 renal it was 2.24 µM. Also, the TGI was 4.59 µM with HL-60(TB) leukemia; 6.36 µM in the test with SR leukemia; 6.19 µM with T-47D breast; 16.8 µM in the test on EKVX NSCLC; 7.11 µM in the test on CAKI-1 renal; 7.83 µM in the test on U251 CNS. For the same molecule, the TGI in the test on KM12 colon came out at 15.7 µM; in the test with ACHN renal, 4.17 µM; in the test with SNB-75 CNS, 4.07 µM; in the test with 786-0 renal, 6.3 µM.

Turning to `Cc1c(C(N)=O)sc2c1C(=O)N(Cc1ccccc1)C1=NN=C(c3ccc(Cl)cc3)CN12`, the GI50 in the test with HL-60(TB) leukemia was 2.59 µM; with SR leukemia, 3.14 µM; in the test on T-47D breast, 3.82 µM; in the test on EKVX NSCLC, 4.7 µM; in the test with CAKI-1 renal, 1.17 µM; in the test on U251 CNS, 2.39 µM. The GI50 was 4.07 µM in the test with KM12 colon, 3.02 µM with ACHN renal, 10.6 µM with SNB-75 CNS and 2.65 µM in the test with 786-0 renal. The TGI in the test on HL-60(TB) leukemia is 46.1 µM; in the test with SR leukemia it was 50.7 µM; in the test on T-47D breast it was 16.4 µM; in the test with EKVX NSCLC, 29.8 µM; in the test with CAKI-1 renal, 10.3 µM; with U251 CNS it was 13.2 µM. For the same molecule, the TGI with KM12 colon amounted to 16.6 µM; with ACHN renal, 11.6 µM; in the test on SNB-75 CNS it was 23.7 µM; in the test with 786-0 renal, 6.92 µM.

For the molecule `CCC1C2Cc3ccc(O)cc3C1(CC)CCN2C` (stereo unspecified), the TGI with HL-60(TB) leukemia, with SR leukemia, with T-47D breast, with EKVX NSCLC, in the test on CAKI-1 renal and in the test with U251 CNS was above 100 µM in each case. The TGI in the test with KM12 colon, with ACHN renal, in the test on SNB-75 CNS and in the test with 786-0 renal was above 100 µM each time.

Take `Cc1cc(O)c(C(C)C)cc1S(=O)(=O)O` (tested in a mixture with another compound): the GI50 in the test with HL-60(TB) leukemia is 0.279 µM; with SR leukemia, 0.16 µM; with T-47D breast it was 0.856 µM; in the test on EKVX NSCLC, 0.678 µM; in the test on CAKI-1 renal, 0.435 µM; in the test on U251 CNS it was 0.368 µM. The GI50 was 0.381 µM in the test with KM12 colon, 1.04 µM in the test on ACHN renal, 0.378 µM with SNB-75 CNS and 0.586 µM in the test on 786-0 renal. Moreover, the TGI is 4.79 µM in the test on T-47D breast; > 100 µM and 14.3 µM in the test with EKVX NSCLC; 10.8 µM in the test on CAKI-1 renal; > 100 µM and 10.9 µM in the test on ACHN renal.

With `C=C(C)C(=O)Nc1ccc(NC(C)C)cc1`, the GI50 with HL-60(TB) leukemia, with SR leukemia, in the test with T-47D breast, in the test with EKVX NSCLC, with CAKI-1 renal and in the test on U251 CNS was above 100 µM in each case. In addition, the GI50 in the test with KM12 colon, in the test on ACHN renal, with SNB-75 CNS and in the test with 786-0 renal was above 100 µM each time. Moreover, the TGI in the test on HL-60(TB) leukemia, in the test on SR leukemia, with T-47D breast, with EKVX NSCLC, in the test on CAKI-1 renal and in the test with U251 CNS was above 100 µM each time. The TGI in the test with KM12 colon, in the test with ACHN renal, in the test with SNB-75 CNS and in the test on 786-0 renal was above 100 µM in each case.

Take `Cc1nn2c(/C=C3\C(=O)Nc4ccc(Cl)cc43)c(C)nc2s1`: the GI50 was 13.5 µM in the test with HL-60(TB) leukemia; 4.69 µM in the test with SR leukemia; 42.8 µM in the test on T-47D breast; 92 µM in the test on EKVX NSCLC; 26 µM in the test with CAKI-1 renal; 46.5 µM in the test with U251 CNS. In addition, the GI50 in the test with KM12 colon is 6.84 µM; in the test on ACHN renal it was 72.9 µM; with SNB-75 CNS it was 16 µM; in the test with 786-0 renal it was 33.7 µM. For the same molecule, the TGI in the test on HL-60(TB) leukemia is 43.4 µM; in the test on SR leukemia, 64.4 µM; in the test with T-47D breast it was above 100 µM; with EKVX NSCLC, above 100 µM; with CAKI-1 renal it was above 100 µM; in the test with U251 CNS, above 100 µM. Moreover, the TGI is above 100 µM with KM12 colon, above 100 µM in the test on ACHN renal, 92.2 µM in the test with SNB-75 CNS and above 100 µM in the test on 786-0 renal.

Take `CC(C)(C)n1cc(-c2ccnc(NCCCNS(=O)(=O)c3ccc(C(F)(F)F)cc3)c2)c(-c2cccc(O)c2)n1`: the GI50 is 2.81 µM with HL-60(TB) leukemia; 2.21 µM with SR leukemia; 2.24 µM in the test on T-47D breast; 1.82 µM in the test on EKVX NSCLC; 1.99 µM in the test on CAKI-1 renal; 1.71 µM in the test on U251 CNS. The GI50 in the test with ACHN renal was 1.88 µM; with SNB-75 CNS, 1.94 µM; in the test with 786-0 renal it was 1.8 µM. Further, the TGI with HL-60(TB) leukemia came to 7.74 µM; in the test on SR leukemia, 10.5 µM; with T-47D breast, 6.61 µM; in the test on EKVX NSCLC, 3.95 µM; in the test with CAKI-1 renal, 4.21 µM; with U251 CNS it was 3.53 µM. The TGI in the test with ACHN renal was found to be 3.54 µM; in the test with SNB-75 CNS it was 6.04 µM; with 786-0 renal, 3.38 µM.

Turning to `COc1ccc2nc3cccc([N+](=O)[O-])c3c(NCCCCCC(=O)O)c2c1`, the GI50 with HL-60(TB) leukemia was 0.0372 µM; in the test on SR leukemia it was 0.0395 µM; with T-47D breast, 0.856 µM; with EKVX NSCLC, 0.297 µM; in the test on CAKI-1 renal, 0.0365 µM; in the test on U251 CNS, 0.0222 µM. Further, the GI50 in the test with KM12 colon is 0.0262 µM; in the test on ACHN renal, 0.0562 µM; in the test on SNB-75 CNS it was 0.282 µM; with 786-0 renal, 0.0799 µM. The TGI in the test with HL-60(TB) leukemia was found to be 6.2 µM; in the test on T-47D breast, 12 µM; in the test with EKVX NSCLC it was 1.97 µM; in the test on CAKI-1 renal, 0.284 µM; with U251 CNS it was 2.46 µM; in the test with KM12 colon, 0.22 µM. Besides, the TGI with ACHN renal was 0.582 µM; in the test on SNB-75 CNS it was 1.57 µM; with 786-0 renal it was 0.548 µM.
